Consider 4 compounds from ChEMBL document CHEMBL4616662, “Cyperane-Type and Related (Nor)Sesquiterpenoids from the Root Bark of Acanthopanax gracilistylus and Their Inhibitory Effects on Nitric Oxide Production” (J Nat Prod, 2020).

For the first data set, the system named is RAW264.7. Description: Antiinflammatory activity in mouse RAW264.7 cells assessed as inhibition of LPS-induced nitirc oxide production pretreated followed by LPS challenge and measured after 24 hrs by Griess assay.
Details: not given
The data set is classed as functional, cell-based. (Griess reagent forms a coloured azo dye with nitrite.)
The term IC50 denotes the concentration that gives 50% inhibition. For `CC(=O)[C@@H]1CC[C@@]2(C)CCC(=O)O[C@@]2(C(C)=O)C1`, the IC50 was found to be 2.6 µM.
Take `CC(=O)[C@]12C=C([C@@](C)(O)CO)CC[C@@]1(C)CC[C@H]2O`: the IC50 is 6.8 µM.
For `CC(=O)[C@@]12C=C([C@](C)(O)CO)CC[C@]1(C)CC[C@@H]2O`, the IC50 was 7.7 µM.
On the same count and under the same terms, to `COC(=O)[C@@H](N)CCCNC(=N)N[N+](=O)[O-]` [L-NAME] belongs 58.4 µM.

For another data set, the system named is RAW264.7. Description: Cytotoxicity against LPS-stimulated mouse RAW264.7 cells at 6.25 to 100 uM by MTT assay. The format is cell-based. Conditions: raw264.7, 100 µM. (In general: Tetrazolium assays rely on reduction of a dye to a coloured formazan, in cell work by metabolically active cells.)
Turning to `CC(=O)[C@@H]1CC[C@@]2(C)CCC(=O)O[C@@]2(C(C)=O)C1`, the Activity result is reported as “Non-Toxic”.
Still for that read-out and setting: to `CC(=O)[C@]12C=C([C@@](C)(O)CO)CC[C@@]1(C)CC[C@H]2O` belongs “Non-Toxic”; to `CC(=O)[C@@]12C=C([C@](C)(O)CO)CC[C@]1(C)CC[C@@H]2O`, “Non-Toxic”.
